Reference: patent US20090253669A1, “Substituted Sulfonamide Compounds” (GRUENENTHAL GmbH, priority 2008, published 2009)

Tests used:
[1] = target: T1, B1R receptor of the rat (rB1R) (Rattus norvegicus, UniProt P97583); assay: FLIPR Ca2+ assay on rB1R-transfected CHO K1 cells, antagonistic action; type: cell-based; conditions: agonist Des-Arg9-bradykinin 100 nM, % of maximum achievable inhibition; for inhibition at 10 µM: CHO-K1, 10 μM test substance, read-out: rB1R [10 μM] % inhibition
T1 construct: host or cells: CHO K1 cells
T1 sequence (P97583 1-337): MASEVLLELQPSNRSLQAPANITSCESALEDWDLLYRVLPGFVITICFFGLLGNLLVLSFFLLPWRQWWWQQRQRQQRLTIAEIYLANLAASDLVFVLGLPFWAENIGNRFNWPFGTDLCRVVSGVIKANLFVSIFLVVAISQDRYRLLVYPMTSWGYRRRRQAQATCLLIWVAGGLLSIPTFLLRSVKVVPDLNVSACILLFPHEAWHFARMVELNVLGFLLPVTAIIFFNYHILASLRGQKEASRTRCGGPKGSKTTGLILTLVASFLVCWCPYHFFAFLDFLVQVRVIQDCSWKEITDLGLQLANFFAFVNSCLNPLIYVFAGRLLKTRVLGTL

[2] = target: T2, human B1R receptor (hB1R) (Homo sapiens, UniProt P46663); assay: FLIPR Ca2+ assay on hB1R-transfected CHO K1 cells, antagonistic action; type: cell-based; conditions: agonist Lys-Des-Arg9-bradykinin 0.5 nM, % of maximum achievable inhibition; for inhibition at 10 µM: CHO-K1, 10 μM test substance, read-out: hB1R [10 μM] % inhibition
T2 construct: host or cells: CHO K1 cells
T2 sequence (P46663 1-353): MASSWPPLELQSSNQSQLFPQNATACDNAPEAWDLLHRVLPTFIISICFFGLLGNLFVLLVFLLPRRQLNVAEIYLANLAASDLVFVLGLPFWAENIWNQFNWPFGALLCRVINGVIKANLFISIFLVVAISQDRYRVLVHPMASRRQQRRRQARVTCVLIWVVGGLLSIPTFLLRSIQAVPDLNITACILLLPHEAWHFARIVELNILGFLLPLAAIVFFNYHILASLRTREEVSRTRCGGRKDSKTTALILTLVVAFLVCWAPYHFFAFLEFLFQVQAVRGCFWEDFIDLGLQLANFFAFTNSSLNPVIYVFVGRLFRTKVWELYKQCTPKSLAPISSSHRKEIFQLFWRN

SMILES | inhibition at 10 µM [1] | inhibition at 10 µM [2] | rB1R [10 μM] % inhibition ([1]; 10 μM test substance) | hB1R [10 μM] % inhibition ([2]; 10 μM test substance)
COc1cc(C)c(S(=O)(=O)N(C)CCOCC(=O)N(C)CCC2CCC(Cc3ccccc3)(N(C)C)CC2)c(C)c1 (centres unmarked) [Compound 53, N-(2-(4-benzyl-4-(dimethylamino)cyclohexyl)ethyl)-2-(2-(4-methoxy-N,2,6-trimethylphenylsulfonamido)ethoxy)-N-methylacetamide] | 100% | 103% | – | –
COc1cc(C)c(S(=O)(=O)N(C)CCOCC(=O)N2CCC(c3ccccc3)(N(C)C)CC2)c(C)c1 [Compound 54, N-(2-(2-(4-(dimethylamino)-4-phenylpiperidin-1-yl)-2-oxoethoxy)ethyl)-4-methoxy-N,2,6-trimethylbenzenesulfonamide] | 100% | 103% | – | –
CN1CCN(C2(CCc3ccccc3)CCN(C(=O)CC(NS(=O)(=O)c3ccc4ccccc4c3)c3ccccc3)CC2)CC1 (centres unmarked) [Compound 55, N-(3-(4-(4-methylpiperazin-1-yl)-4-phenethylpiperidin-1-yl)-3-oxo-1-phenylpropyl)naphthalene-2-sulfonamide] | 100% | 99% | – | –
CN(CCC1CCC(Cc2ccccc2)(N2CCCC2)CC1)C(=O)CC(NS(=O)(=O)c1ccc2ccccc2c1)c1ccccc1 (centres unmarked) [Compound 56, N-(2-(4-benzyl-4-(pyrrolidin-1-yl)cyclohexyl)ethyl)-N-methyl-3-(naphthalene-2-sulfonamido)-3-phenylpropanamide] | 100% | 101% | – | –
COc1cc(C)c(S(=O)(=O)N2CCCCC2COCC(=O)N2CCC(Cc3ccccc3)(N3CCN(C)CC3)CC2)c(C)c1 (centres unmarked) [Compound 57, 1-(4-benzyl-4-(4-methylpiperazin-1-yl)piperidin-1-yl)-2-((1-(4-methoxy-2,6-dimethylphenylsulfonyl)piperidin-2-yl)methoxy)ethanone] | 100% | 100% | – | –
COc1cc(C)c(S(=O)(=O)N(C)CCOCC(=O)N(C)CCC2CCC(CCc3ccccc3)(N3CCCC3)CC2)c(C)c1 (centres unmarked) [Compound 58, 2-(2-(4-methoxy-N,2,6-trimethylphenylsulfonamido)ethoxy)-N-methyl-N-(2-(4-phenethyl-4-(pyrrolidin-1-yl)cyclohexyl)ethyl)acetamide] | 100% | 103% | – | –
COc1cc(C)c(S(=O)(=O)N2CCCCC2COCC(=O)N(C)CCCC2CCC(CCc3ccccc3)(N3CCCC3)CC2)c(C)c1 (centres unmarked) [Compound 59, 2-((1-(4-methoxy-2,6-dimethylphenylsulfonyl)piperidin-2-yl)methoxy)-N-methyl-N-(3-(4-phenethyl-4-(pyrrolidin-1-yl)cyclohexyl)propyl)acetamide] | 100% | 101% | – | –
COc1cc(C)c(S(=O)(=O)N2CCCCC2COCC(=O)N(C)CCC2CCC(c3ccccc3)(N3CCCC3)CC2)c(C)c1 (centres unmarked) [Compound 60, 2-((1-(4-methoxy-2,6-dimethylphenylsulfonyl)piperidin-2-yl)methoxy)-N-methyl-N-(2-(4-phenyl-4-(pyrrolidin-1-yl)cyclohexyl)ethyl)acetamide] | 100% | 103% | – | –
CN(CCC1CCC(Cc2ccccc2)(N(C)C)CC1)C(=O)COCC1CCc2ccccc2N1S(=O)(=O)c1ccc(Cl)c(Cl)c1 (centres unmarked) [Compound 61, N-(2-(4-benzyl-4-(dimethylamino)cyclohexyl)ethyl)-2-((1-(3,4-dichlorophenylsulfonyl)-1,2,3,4-tetrahydroquinolin-2-yl)methoxy)-N-methylacetamide] | 100% | 49% | – | –
COc1cc(C)c(S(=O)(=O)N2CCCCC2COCC(=O)N2CCC(c3ccccc3)(N3CCN(c4ccncc4)CC3)CC2)c(C)c1 (centres unmarked) [Compound 62, 2-((1-(4-methoxy-2,6-dimethylphenylsulfonyl)piperidin-2-yl)methoxy)-1-(4-phenyl-4-(4-(pyridin-4-yl)piperazin-1-yl)piperidin-1-yl)ethanone] | 100% | 103% | – | –
COc1cc(C)c(S(=O)(=O)N(C)CCOCC(=O)N2CCC(Cc3ccccc3)(N(C)C)CC2)c(C)c1 [Compound 63, N-(2-(2-(4-benzyl-4-(dimethylamino)piperidin-1-yl)-2-oxoethoxy)ethyl)-4-methoxy-N,2,6-trimethylbenzenesulfonamide] | 100% | 102% | – | –
CN1CCN(C2(c3ccccc3)CCN(C(=O)CC3CCCCN3S(=O)(=O)c3cccc(C(F)(F)F)c3)CC2)CC1 (centres unmarked) [Compound 64, 1-(4-(4-methylpiperazin-1-yl)-4-phenylpiperidin-1-yl)-2-(1-(3-(trifluoromethyl)phenylsulfonyl)piperidin-2-yl)ethanone] | 100% | 84% | – | –
COc1cc(C)c(S(=O)(=O)N2CCCCC2COCC(=O)N2CCC(Cc3ccccc3)(N(C)C)CC2)c(C)c1 (centres unmarked) [Compound 65, 1-(4-benzyl-4-(dimethylamino)piperidin-1-yl)-2-((1-(4-methoxy-2,6-dimethylphenylsulfonyl)piperidin-2-yl)methoxy)ethanone] | 100% | 104% | – | –
COc1cc(C)c(S(=O)(=O)N2CCCCC2COCC(=O)N(C)CC2CCC(c3ccccc3)(N3CCCC3)CC2)c(C)c1 (centres unmarked) [Compound 66, 2-((1-(4-methoxy-2,6-dimethylphenylsulfonyl)piperidin-2-yl)methoxy)-N-methyl-N-((4-phenyl-4-(pyrrolidin-1-yl)cyclohexyl)methyl)acetamide] | 100% | 102% | – | –
COc1cc(C)c(S(=O)(=O)N2CCCCC2COCC(=O)N2CCC(c3cccc(F)c3)(N3CCN(C)CC3)CC2)c(C)c1 (centres unmarked) [Compound 67, 1-(4-(3-fluorophenyl)-4-(4-methylpiperazin-1-yl)piperidin-1-yl)-2-((1-(4-methoxy-2,6-dimethylphenylsulfonyl)piperidin-2-yl)methoxy)ethanone] | – | – | 100% | 101%
COc1cc(C)c(S(=O)(=O)N2CCCCC2COCC(=O)N(C)CCC2CCC(Cc3ccccc3)(N3CCCC3)CC2)c(C)c1 (centres unmarked) [Compound 68, N-(2-(4-benzyl-4-(pyrrolidin-1-yl)cyclohexyl)ethyl)-2-((1-(4-methoxy-2,6-dimethylphenylsulfonyl)piperidin-2-yl)methoxy)-N-methylacetamide] | 100% | 103% | – | –
COc1cc(C)c(S(=O)(=O)N(C)CCOCC(=O)N2CCC(c3ccccc3)(N3CCN(c4ccncc4)CC3)CC2)c(C)c1 [Compound 69, 4-methoxy-N,2,6-trimethyl-N-(2-(2-oxo-2-(4-phenyl-4-(4-(pyridin-4-yl)piperazin-1-yl)piperidin-1-yl)ethoxy)ethyl)benzenesulfonamide] | 99% | 102% | – | –
COc1cc(C)c(S(=O)(=O)N2CCCCC2COCC(=O)N2CCC(c3ccc(F)cc3)(N3CCN(C)CC3)CC2)c(C)c1 (centres unmarked) [Compound 70, 1-(4-(4-fluorophenyl)-4-(4-methylpiperazin-1-yl)piperidin-1-yl)-2-((1-(4-methoxy-2,6-dimethylphenylsulfonyl)piperidin-2-yl)methoxy)ethanone] | 99% | 104% | – | –
CN(C)C1(CCc2ccccc2)CCN(C(=O)CC2CCCCN2S(=O)(=O)c2cccc(C(F)(F)F)c2)CC1 (centres unmarked) [Compound 71, 1-(4-(dimethylamino)-4-phenethylpiperidin-1-yl)-2-(1-(3-(trifluoromethyl)phenylsulfonyl)piperidin-2-yl)ethanone] | 99% | 92% | – | –
COc1cc(C)c(S(=O)(=O)N(C)CCOCC(=O)N(C)CCC2CCC(c3ccccc3)(N(C)C)CC2)c(C)c1 (centres unmarked) [Compound 72, N-(2-(4-(dimethylamino)-4-phenylcyclohexyl)ethyl)-2-(2-(4-methoxy-N,2,6-trimethylphenylsulfonamido)ethoxy)-N-methylacetamide] | 99% | 103% | – | –
COc1cc(C)c(S(=O)(=O)N2CCCCC2COCC(=O)N(C)CCC2CCC(CCc3ccccc3)(N(C)C)CC2)c(C)c1 (centres unmarked) [Compound 73, N-(2-(4-(dimethylamino)-4-phenethylcyclohexyl)ethyl)-2-((1-(4-methoxy-2,6-dimethylphenylsulfonyl)piperidin-2-yl)methoxy)-N-methylacetamide] | 99% | 104% | – | –
CN(CCCC1CCC(Cc2ccccc2)(N2CCCC2)CC1)C(=O)CC(NS(=O)(=O)c1ccc2ccccc2c1)c1ccccc1 (centres unmarked) [Compound 74, N-(3-(4-benzyl-4-(pyrrolidin-1-yl)cyclohexyl)propyl)-N-methyl-3-(naphthalene-2-sulfonamido)-3-phenylpropanamide] | 99% | 102% | – | –
